Some test systems named below: Escherichia coli K99; Escherichia coli 078; Escherichia coli K88; Escherichia coli UB1005; Escherichia coli JJ2489; Escherichia coli JW0013; Escherichia coli J2210; Escherichia coli MC1041; Escherichia coli; Escherichia coli JJ2487; Escherichia coli O157:H7; Escherichia coli MC1061.
What all share (experiment): ≥ marks a high value that may be exact or a test limit, other limits are often not marked, values filed in µg/mL are converted to µM
For assay [1], the system named is Staphylococcus epidermidis ATCC 12228.
The subject of assay [2] is Salmonella enterica subsp. enterica serovar Pullorum ATCC 7913.
The subject of assay [3] is Staphylococcus aureus ATCC 43300.
The test system of assay [4] is Candida parapsilosis CGMCC 2.3989.
Assay [5] deals with Salmonella enterica subsp. enterica serovar Typhimurium C77-31.
Assay [6] relates to Pseudomonas aeruginosa ATCC 27853.
In assay [7] the test system is Candida tropicalis CGMCC 2.1975.
The test system of assay [8] is Salmonella enterica subsp. enterica serovar Typhimurium ATCC 14028.
Assay [9] has as its system Candida albicans CGMCC 2.2086.
Assay [10] relates to Staphylococcus aureus ATCC 25923.
In assay [11] the test system is Enterococcus faecalis MTCC 439.
Assay [12] has as its system Proteus mirabilis MTCC 3158.
Assay [13] deals with Vibrio cholerae MTCC 3904.
Assay [14] relates to Pluralibacter gergoviae MTCC 3826.
The test system of assay [15] is Alcaligenes faecalis MTCC 1937.
Assay [16] concerns Escherichia coli K12 MG1655.
Assay [17] relates to Bordetella bronchiseptica MTCC 6837.
For assay [18], the system named is Alkalihalobacillus alcalophilus MTCC 860.
Assay [19] relates to Citrobacter freundii MTCC 1658.
Assay [20] has as its system Pseudomonas aeruginosa MTCC 3542.
Assay [21] has as its system Stenotrophomonas maltophilia MTCC 1890.
For assay [22], the system named is Proteus vulgaris MTCC 1771.
The test system of assay [23] is Klebsiella aerogenes MTCC 111.
For assay [24], the system named is Haemophilus influenzae MTCC 621.
The test system of assay [25] is Acinetobacter baumannii MTCC 9829.
Assay [26] has as its system Shigella flexneri MTCC 1457.
The test system of assay [27] is Salmonella enterica MTCC 9844.
For assay [28], the system named is Klebsiella pneumoniae MTCC 7407.
For assay [29], the system named is Shigella boydii MTCC 11947.
Assay [30] concerns Citrobacter koseri MTCC 1657.
Assay [31] deals with Staphylococcus aureus MTCC 3160.
Assay [32] has as its system Corynebacterium glutamicum MTCC 2679.
The test system of assay [33] is Klebsiella oxytoca MTCC 2275.
In assay [34] the test system is Staphylococcus haemolyticus MTCC 3383.
The subject of assay [35] is Salmonella enterica subsp. enterica serovar Enteritidis MH91989.
In assay [36] the test system is Salmonella enterica serovar Tennessee.
Assay [37] deals with Escherichia coli JW0368 ΔsbmA.
Assay [38] deals with Escherichia coli JW2778 ΔygdD.
The subject of assay [39] is Salmonella enterica subsp. enterica serovar Infantis.
Assay [40] concerns Salmonella typhimurium SL1344.
In assay [41] the test system is Salmonella enterica subsp. enterica serovar Newport.

Molecules are shown by their SMILES. In brackets after ≈: the same amount, converted by molar mass. Several values for one entry are separate records, joined by “and”; a condition that tells them apart may be missing. Equal values may be shown once.

For the compound `CC[C@H](C)[C@H](NC(=O)[C@H](CCCN=C(N)N)NC(=O)[C@H](C)NC(=O)[C@H](C)N)C(=O)N[C@H](C(=O)N[C@@H](CC(C)C)C(=O)N[C@@H](CCCN=C(N)N)C(=O)NCC(=O)N[C@@H](CCCN=C(N)N)C(=O)N[C@@H](Cc1ccccc1)C(=O)N[C@@H](CCCN=C(N)N)C(N)=O)[C@@H](C)CC` [AARIILRGRFR], the MIC is 8 µM (≈ 10.6 µg/mL) in assay [1]; 4 µM (≈ 5.31 µg/mL) in [2]; 8 µM (≈ 10.6 µg/mL) in assay [3]; no less than 64 µM in assay [4]; 2 µM (≈ 2.66 µg/mL) in the assay on Escherichia coli K99; 8 µM (≈ 10.6 µg/mL) in assay [5]. For the same compound, the MIC in assay [6] worked out at 16 µM (≈ 21.2 µg/mL); in the assay on Escherichia coli 078, 4 µM (≈ 5.31 µg/mL); in assay [7], 16 µM (≈ 21.2 µg/mL); in assay [8], 4 µM (≈ 5.31 µg/mL); against Escherichia coli K88, 2 µM (≈ 2.66 µg/mL); with Escherichia coli UB1005 it was 4 µM (≈ 5.31 µg/mL). The values for the MIC in [9] and in assay [10] were no less than 128 µM and 16 µM (≈ 21.2 µg/mL), respectively.

On to `CC[C@H](C)[C@H](NC(=O)[C@H](C)NC(=O)[C@H](CCCCN)NC(=O)[C@@H](N)CCC(=O)O)C(=O)N[C@@H](CC(C)C)C(=O)N[C@@H](CO)C(=O)N[C@@H](C)C(=O)N[C@@H](CC(C)C)C(=O)N[C@@H](CCCCN)C(=O)N[C@@H](CC(C)C)C(=O)N[C@@H](CC(C)C)C(=O)N[C@@H](CCCN=C(N)N)C(=O)N[C@@H](CC(C)C)C(=O)N[C@@H](C)C(=O)N[C@@H](CC(C)C)C(=O)O` [EKAILSALKLLRLAL], for which the MIC in [11], in [12], in assay [13], in [14], in assay [15] and in assay [16] was no less than 77.5 µM each time. In addition, the MIC in assay [17] was no less than 38.7 µM; in assay [18] it was no less than 38.7 µM; in assay [19], no less than 77.5 µM; in [20] it was no less than 77.5 µM; in assay [21], no less than 77.5 µM; in assay [22] it was no less than 77.5 µM. Besides, the MIC in [23] was no less than 77.5 µM; in assay [24], 9.68 µM (≈ 16 µg/mL); in [25], no less than 77.5 µM; in assay [26] it was no less than 77.5 µM; in assay [27], no less than 77.5 µM; in [28] it was no less than 77.5 µM. The MIC in assay [8] is greater than 77.5 µM; in assay [29], no less than 77.5 µM; in [30], no less than 77.5 µM; in assay [31], no less than 77.5 µM; in assay [32], 19.4 µM (≈ 32 µg/mL); in [33], no less than 77.5 µM. Besides, the MIC in [34] is no less than 77.5 µM.

With `CC[C@H](C)[C@H](NC(=O)[C@@H]1CCCN1C(=O)[C@H](CCCCN)NC(=O)[C@@H]1CCCN1C(=O)[C@@H]1CCCN1C(=O)[C@@H](NC(=O)[C@@H]1CCCN1C(=O)[C@H](CCCN=C(N)N)NC(=O)[C@@H]1CCCN1C(=O)[C@H](CCCN=C(N)N)NC(=O)[C@H](Cc1ccc(O)cc1)NC(=O)[C@H](CO)NC(=O)CNC(=O)[C@H](CCCCN)NC(=O)[C@H](CC(=O)O)NC(=O)[C@@H](N)C(C)C)[C@@H](C)O)C(=O)N[C@@H](Cc1ccc(O)cc1)C(=O)N[C@@H](CC(N)=O)C(=O)N[C@@H](CCCN=C(N)N)C(=O)N[C@@H](CC(N)=O)C(=O)O` [VDKGSYRPRPTPPKPIYNRN], the MIC is 0.15 µM (≈ 0.353 µg/mL) in [35]; 0.075 µM (≈ 0.177 µg/mL) in assay [36]; 0.078 µM (≈ 0.184 µg/mL) with Escherichia coli JJ2489; 0.3 µM (≈ 0.707 µg/mL) in [37]; 0.104 µM (≈ 0.245 µg/mL) in assay [38]; 0.098 µM (≈ 0.231 µg/mL) in [39]. For the same compound, the MIC against Escherichia coli JW0013 is 0.037 µM (≈ 0.0872 µg/mL); in [40], 0.075 µM (≈ 0.177 µg/mL); against Escherichia coli J2210 it was 0.075 µM (≈ 0.177 µg/mL); in assay [41], 0.037 µM (≈ 0.0872 µg/mL); in the assay on Escherichia coli MC1041, 0.075 µM (≈ 0.177 µg/mL); in the assay with Escherichia coli it was 0.15 µM and 0.208 µM.

Consider `CC[C@H](C)[C@H](NC(=O)[C@H](CCCN=C(N)N)NC(=O)[C@H](CCCN=C(N)N)NC(=O)[C@@H]1CCCN1C(=O)[C@@H]1CCCN1C(=O)[C@H](CCCN=C(N)N)NC(=O)[C@@H]1CCCN1C(=O)[C@H](CCCN=C(N)N)NC(=O)[C@@H]1CCCN1C(=O)[C@H](CCCN=C(N)N)NC(=O)[C@H](Cc1ccc(O)cc1)NC(=O)[C@@H]1CCCN1C(=O)[C@@H]1CCCN1C(=O)[C@H](CCCCN)NC(=O)[C@H](CC(=O)O)NC(=O)[C@@H](N)C(C)C)C(=O)N[C@@H](Cc1ccc(O)cc1)C(=O)N[C@@H](CC(N)=O)C(=O)N[C@@H](CCCN=C(N)N)C(N)=O` [VDKPPYRPRPRPPRRIYNR], for which the MIC in assay [35] amounted to 0.246 µM (≈ 0.6 µg/mL); in the assay on Escherichia coli JJ2487 it was 0.16 µM (≈ 0.39 µg/mL); against Escherichia coli O157:H7, 0.986 µM (≈ 2.4 µg/mL); with Escherichia coli JW0013, 0.173 µM (≈ 0.42 µg/mL); in assay [40], 0.173 µM (≈ 0.42 µg/mL); with Escherichia coli J2210, 0.16 µM (≈ 0.39 µg/mL). Moreover, the MIC with Escherichia coli MC1061 stood at 0.0822 µM (≈ 0.2 µg/mL).

The values above are taken from DBAASP.
